The text below walks through data of PMC4451461, “SimC7 Is a Novel NAD(P)H-Dependent Ketoreductase Essential for the Antibiotic Activity of the DNA Gyrase Inhibitor Simocyclinone” (Journal of Molecular Biology, 2015).

Holding throughout (format): biochemical
For experiment [1], the target named is T1, DNA gyrase subunit A (GyrA) (Escherichia coli, UniProt P0AES4). The experiment in a line: DNA gyrase supercoiling inhibition; SPR showed only weak, non-specific binding to GyrA. Also on record: DNA gyrase; with GyrB.
Target sequence in this assay (P0AES4 2-875): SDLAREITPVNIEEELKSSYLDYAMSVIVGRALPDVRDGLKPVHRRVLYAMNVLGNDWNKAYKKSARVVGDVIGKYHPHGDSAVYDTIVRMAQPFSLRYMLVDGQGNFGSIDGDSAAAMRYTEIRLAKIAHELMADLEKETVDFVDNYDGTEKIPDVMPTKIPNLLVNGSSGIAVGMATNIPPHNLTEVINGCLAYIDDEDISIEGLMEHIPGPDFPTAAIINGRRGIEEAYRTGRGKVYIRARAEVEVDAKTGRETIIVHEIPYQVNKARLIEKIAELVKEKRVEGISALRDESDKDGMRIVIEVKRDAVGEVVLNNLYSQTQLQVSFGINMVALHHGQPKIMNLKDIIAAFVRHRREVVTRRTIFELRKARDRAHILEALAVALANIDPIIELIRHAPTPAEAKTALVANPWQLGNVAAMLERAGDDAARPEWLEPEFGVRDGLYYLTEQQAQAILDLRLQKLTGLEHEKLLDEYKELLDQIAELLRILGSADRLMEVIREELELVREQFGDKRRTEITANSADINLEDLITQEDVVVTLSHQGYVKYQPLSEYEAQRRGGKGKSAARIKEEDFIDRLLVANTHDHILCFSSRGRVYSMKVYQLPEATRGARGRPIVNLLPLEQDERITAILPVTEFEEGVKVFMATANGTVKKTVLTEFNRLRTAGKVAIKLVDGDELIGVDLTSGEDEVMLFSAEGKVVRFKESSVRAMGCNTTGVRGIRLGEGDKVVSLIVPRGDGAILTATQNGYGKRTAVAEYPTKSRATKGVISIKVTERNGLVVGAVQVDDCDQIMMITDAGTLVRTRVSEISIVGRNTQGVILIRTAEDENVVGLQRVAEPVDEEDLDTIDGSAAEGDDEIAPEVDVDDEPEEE
Experiment [2] has as its target T1, DNA gyrase subunit A (GyrA). In words: DNA gyrase inhibition (supercoiling) assay. Also on record: DNA gyrase; with GyrB.
Target sequence in this assay (P0AES4 2-875): as above
Experiment [3] concerns the target T2, SimC7 (Streptomyces antibioticus, UniProt G9VYV4).
T2 construct: N-terminally His-tagged SimC7
T2 sequence (G9VYV4 1-284): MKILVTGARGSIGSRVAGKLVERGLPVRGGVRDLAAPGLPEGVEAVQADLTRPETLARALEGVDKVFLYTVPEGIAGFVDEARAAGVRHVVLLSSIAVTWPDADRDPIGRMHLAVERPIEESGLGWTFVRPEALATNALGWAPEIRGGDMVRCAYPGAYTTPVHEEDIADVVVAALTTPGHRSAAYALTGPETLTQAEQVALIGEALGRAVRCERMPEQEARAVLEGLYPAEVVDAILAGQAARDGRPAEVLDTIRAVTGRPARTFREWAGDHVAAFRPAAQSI
The experiment in a line: HPLC-UV ketoreductase assay ([…] NAD(P)H).

Experiment [4] has as its target T1, DNA gyrase subunit A (GyrA). The experiment in a line: SPR to GyrA N-terminal domain (data not shown); DNA gyrase supercoiling inhibition. Also on record: GyrA N-terminal domain (SPR); DNA gyrase (supercoiling); with GyrB (supercoiling assay). From the text: SPR to GyrA N-terminal domain (data not shown); DNA gyrase supercoiling inhibition on DNA gyrase subunit A (GyrA) | SD8 bound to the GyrA N-terminal domain with a similar affinity to that reported previously
Target sequence in this assay (P0AES4 2-523): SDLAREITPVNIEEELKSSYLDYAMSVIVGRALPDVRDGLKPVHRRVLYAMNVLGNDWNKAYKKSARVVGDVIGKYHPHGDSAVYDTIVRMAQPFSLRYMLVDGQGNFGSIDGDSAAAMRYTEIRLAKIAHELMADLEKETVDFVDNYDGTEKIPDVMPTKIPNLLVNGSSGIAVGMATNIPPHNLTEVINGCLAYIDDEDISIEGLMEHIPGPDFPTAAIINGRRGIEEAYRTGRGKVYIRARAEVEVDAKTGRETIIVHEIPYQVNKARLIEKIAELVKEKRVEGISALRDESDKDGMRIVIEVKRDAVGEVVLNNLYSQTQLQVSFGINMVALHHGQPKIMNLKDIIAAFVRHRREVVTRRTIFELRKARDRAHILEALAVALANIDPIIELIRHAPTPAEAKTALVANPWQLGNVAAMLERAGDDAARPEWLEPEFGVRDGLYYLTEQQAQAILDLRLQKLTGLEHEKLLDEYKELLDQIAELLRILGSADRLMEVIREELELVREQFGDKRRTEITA

The target in experiment [5] is T2, SimC7. The experiment in a line: HPLC-UV ketoreductase assay; also oxidised as substrate in the reverse reaction.

pIC50: −log10 of the molar value.

By pIC50 is commonly meant −log10 of the IC50, conventionally taken in molar units. The molecule `CC(=O)O[C@@H]1[C@@H](C)O[C@@H](c2ccc3c(c2O)C(=O)[C@]24O[C@@]2(C3=O)[C@@]2(O)C(=O)C=C(C)C[C@@]2(O)C[C@@H]4O)C[C@H]1OC(=O)/C=C/C=C/C=C/C=C/C(=O)Nc1c(O)c2ccc(O)c(Cl)c2oc1=O` [7-oxo-SD8] gave a pIC50 in experiment [1] of 4.00 to 4.30.

Take `COC(=O)/C=C/C=C/C=C/C=C/C(=O)Nc1c(O)c2ccc(O)c(Cl)c2oc1=O` [MGD8N2A]: the pIC50 in experiment [2] was 4.60.

Take `NC(=O)C1=CN([C@@H]2O[C@H](COP(=O)(O)OP(=O)(O)OC[C@H]3O[C@@H](n4cnc5c(N)ncnc54)[C@H](O)[C@@H]3O)[C@@H](O)[C@H]2O)C=CC1` [NADH]: the “HPLC-UV ketoreductase assay (0.3 mM NAD(P)H)” value in experiment [3] was “SimC7 was able to use NADH or NADPH for the reduction (Fig. 6b)”.

Regarding `NC(=O)C1=CN([C@@H]2O[C@H](COP(=O)(O)OP(=O)(O)OC[C@H]3O[C@@H](n4cnc5c(N)ncnc54)[C@H](OP(=O)(O)O)[C@@H]3O)[C@@H](O)[C@H]2O)C=CC1` [NADPH], the “HPLC-UV ketoreductase assay (0.3 mM NAD(P)H)” value in experiment [3] was “SimC7 was able to use NADH or NADPH for the reduction (Fig. 6b) but showed a preference for NADPH”.

Consider `CC(=O)O[C@@H]1[C@@H](C)O[C@@H](c2ccc3c(c2O)[C@H](O)[C@]24O[C@@]2(C3=O)[C@@]2(O)C(=O)C=C(C)C[C@@]2(O)C[C@@H]4O)C[C@H]1OC(=O)/C=C/C=C/C=C/C=C/C(=O)Nc1c(O)c2ccc(O)c(Cl)c2oc1=O` [SD8, simocyclinone D8], for which the pIC50 in experiment [4] is 6.30 to 7.00.

`CC(=O)O[C@@H]1[C@@H](C)O[C@@H](c2ccc3c(c2O)[C@H](O)[C@]24O[C@@]2(C3=O)[C@@]2(O)C(=O)C=C(C)C[C@@]2(O)C[C@@H]4O)C[C@H]1OC(=O)/C=C/C=C/C=C/C=C/C(=O)Nc1c(O)c2ccc(O)c(Cl)c2oc1=O` [compound 2, simocyclinone D8]: the “HPLC-UV ketoreductase assay; also oxidised as substrate in the reverse reaction” value in experiment [5] is given as “It was also possible to assay the reaction in the reverse direction, following the oxidation of SD8 to 7-oxo-SD8 by SimC7”.
